Laboratory results: ChEMBL document CHEMBL1201862, “PubChem BioAssay data set” (2004)
Counter-ions that a name gives are not always drawn.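 These data come from cells grown in 96-well plates and exposed to compound for 48 hours at five concentrations. Abbreviation: GI50, concentration required for 50% inhibition of growth.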 Activity calls are given as the source filed them. Rule as the data show it: active = GI50 up to about 1.1 µM and inactive = higher.

Experiments:
Experiment in all cases: NCI tumour cell line growth inhibition, 48 h
A549 = tested on: A549
COLO 205 = tested on: COLO 205
EKVX = tested on: EKVX
HOP-92 = tested on: HOP-92
Hs-578T = tested on: Hs-578T
IGROV-1 = tested on: IGROV-1
K562 = tested on: K562
M14 = tested on: M14
MDA-MB-435 = tested on: MDA-MB-435
NCI-H226 = tested on: NCI-H226
OVCAR-4 = tested on: OVCAR-4
PC-3 = tested on: PC-3
RPMI-8226 = tested on: RPMI-8226
SF-268 = tested on: SF-268
SK-OV-3 = tested on: SK-OV-3
SNB-19 = tested on: SNB-19
SNB-75 = tested on: SNB-75
SR = tested on: SR
T47D = tested on: T47D
TK-10 = tested on: TK-10

SMILES	GI50 (A549)	GI50 (COLO 205)	GI50 (EKVX)	GI50 (HOP-92)	GI50 (Hs-578T)	GI50 (IGROV-1)	GI50 (K562)	GI50 (M14)	GI50 (MDA-MB-435)	GI50 (NCI-H226)	GI50 (OVCAR-4)	GI50 (PC-3)	GI50 (RPMI-8226)	GI50 (SF-268)	GI50 (SK-OV-3)	GI50 (SNB-19)	GI50 (SNB-75)	GI50 (SR)	GI50 (T47D)	GI50 (TK-10)
COc1ccc2[nH]c3c(C)c4ccnc(NCCCN(C)CCCN)c4c(C)c3c2c1	0.0442 µM (active)	0.0778 µM (active)	0.225 µM (active)	0.13 µM (active)	0.0364 µM (active)	0.165 µM (active)	0.118 µM (active)	0.171 µM (active)	0.195 µM (active)	0.0458 µM (active)	0.0809 µM (active)	0.259 µM (active)	0.281 µM (active)	0.138 µM (active)	0.838 µM (active)	0.213 µM (active)	0.0257 µM (active)	0.186 µM (active)	0.213 µM (active)	0.166 µM (active)
N#CC(NC12CC3CC(CC(C3)C1)C2)c1ccccc1 (stereo not given)	> 100 µM (inactive)	> 100 µM (inactive)	> 100 µM (inactive)	94.2 µM (inactive)	> 100 µM (inactive)	> 100 µM (inactive)	> 100 µM (inactive)	> 100 µM (inactive)	> 100 µM (inactive)	> 100 µM (inactive)	> 100 µM (inactive)	> 100 µM (inactive)	> 100 µM (inactive)	> 100 µM (inactive)	> 100 µM (inactive)	> 100 µM (inactive)	> 100 µM (inactive)	> 100 µM (inactive)	> 100 µM (inactive)	> 100 µM (inactive)
CCN1CCC(O)(c2ccc(Oc3ccc(F)cc3)cc2)C(C(=O)c2ccc(Oc3ccc(F)cc3)cc2)C1 (stereo not given)	15 µM (inactive)	16.6 µM (inactive)	16.6 µM (inactive)	11.9 µM (inactive)	17.2 µM (inactive)	11 µM (inactive)	12.7 µM (inactive)	16.9 µM (inactive)	16.8 µM (inactive)	13.6 µM (inactive)	15 µM (inactive)	13.4 µM (inactive)	2.79 µM (inactive)	16.9 µM (inactive)	17.8 µM (inactive)	15.8 µM (inactive)	15.5 µM (inactive)	2.33 µM (inactive)	13.4 µM (inactive)	11 µM (inactive)
CCc1ccc2c(c1)N(CC(C)CN(C)C)c1ccccc1S2 (stereo not given) [ETYMEMAZINE HYDROCHLORIDE]	8.39 µM (inactive)	3.29 µM (inactive)	11.4 µM (inactive)	4.66 µM (inactive)	6.01 µM (inactive)	4.98 µM (inactive)	0.37 µM (active)	2.12 µM (inactive)	2.87 µM (inactive)	9.86 µM (inactive)	5.16 µM (inactive)	4.93 µM (inactive)	2.17 µM (inactive)	7.5 µM (inactive)	6.53 µM (inactive)	10.6 µM (inactive)	3 µM (inactive)	0.298 µM (active)	3.66 µM (inactive)	4.81 µM (inactive)
CC(=O)/C(C)=N/NC(=O)c1ccccc1O	> 10 µM (inactive)	> 10 µM (inactive)	> 10 µM (inactive)	> 10 µM (inactive)	> 100 µM (inactive)	75 µM (inactive)	37 µM (inactive)	> 10 µM (inactive)	> 100 µM (inactive)	> 10 µM (inactive)	> 10 µM (inactive)	> 100 µM (inactive)	> 10 µM (inactive)	> 10 µM (inactive)	> 10 µM (inactive)	> 10 µM (inactive)	> 10 µM (inactive)	41.6 µM (inactive)	> 100 µM (inactive)	> 10 µM (inactive)
CCCN(CCCCN1C(=O)c2ccccc2C1=O)CC1COc2ccccc2O1 (stereo not given)	> 100 µM (inactive)	50.1 µM (inactive)	> 100 µM (inactive)	29.4 µM (inactive)	> 100 µM (inactive)	> 100 µM (inactive)	42.1 µM (inactive)	> 100 µM (inactive)	> 100 µM (inactive)	53 µM (inactive)	> 100 µM (inactive)	51.9 µM (inactive)	26.4 µM (inactive)	> 100 µM (inactive)	> 100 µM (inactive)	> 100 µM (inactive)	> 100 µM (inactive)	25.1 µM (inactive)	42.9 µM (inactive)	> 100 µM (inactive)
C=C(Cl)C(Cl)(CBr)CCC(Cl)C(C)(C)Cl (stereo not given)	2.96 µM (inactive)	4.15 µM (inactive)	8.38 µM (inactive)	1.16 µM (inactive)	0.0237 µM (active)	6.84 µM (inactive)	2.22 µM (inactive)	17.9 µM (inactive)	2.05 µM (inactive)	22.2 µM (inactive)	1.09 µM (active)	1.53 µM (inactive)	0.112 µM (active)	1.08 µM (active)	25.8 µM (inactive)	2.26 µM (inactive)	0.23 µM (active)	15.1 µM (inactive)	0.256 µM (active)	1.14 µM (inactive)
C/C(=N\NC(=S)NCc1ccccc1)c1nc2cccnc2[nH]1	6.38 µM (inactive)	14.5 µM (inactive)	2.88 µM (inactive)	4.37 µM (inactive)	18.3 µM (inactive)	8 µM (inactive)	5.35 µM (inactive)	6.01 µM (inactive)	12.4 µM (inactive)	4.44 µM (inactive)	16.4 µM (inactive)	8.95 µM (inactive)	11.5 µM (inactive)	4.62 µM (inactive)	10.4 µM (inactive)	6.49 µM (inactive)	20.2 µM (inactive)	4.62 µM (inactive)	9.1 µM (inactive)	15.2 µM (inactive)
